Results published in article PMC2936338 (Molecular Cancer, 2010).
Like-named read-outs stand apart in the source and are kept apart here.

What was measured:
[1] = system: U251 glioblastoma cells; assay: MTT cell viability assay; details: read-out: IC50 values (μM), cell viability
Procedure: (§2) Twenty-five μl of 3-(4,5-Dimethylthiazolyl)-2,5-diphenyltetrazolium bromide (MTT, Sigma) was added to each sample and incubated for 3.5 hours. After this, 100 μl of N, N-dimethylformamide (Sigma) solubilization solution was added to each well. […] Half-Maximal inhibitory concentrations (IC50) were determined using Sigma Plot 9.0 software (Systat Software Inc., San Jose, CA).

[2] = system: SNU-449 liver cancer cells; assay: MTT cell viability assay; details: read-out: IC50 values (μM), cell viability
Procedure: as §2

[3] = system: ARH77 multiple myeloma cells; assay: MTT cell viability assay; details: read-out: IC50 values (μM), cell viability
Procedure: as §2

[4] = system: SNU-398 liver cancer cells; assay: MTT cell viability assay; details: read-out: IC50 values (μM), cell viability
Procedure: as §2

[5] = system: SNU-387 liver cancer cells; assay: MTT cell viability assay; details: read-out: IC50 values (μM), cell viability
Procedure: as §2

[6] = system: U87 glioblastoma cells; assay: MTT cell viability assay; details: read-out: IC50 values (μM), cell viability
Procedure: as §2

[7] = system: HCT-116 colorectal cancer cells; assay: MTT cell viability assay; details: read-out: IC50 values (μM), cell viability
Procedure: as §2

[8] = system: SW480 colorectal cancer cells; assay: MTT cell viability assay; details: read-out: IC50 values (μM), cell viability
Procedure: as §2

[9] = system: U266 multiple myeloma cells; assay: MTT cell viability assay; details: read-out: IC50 values (μM), cell viability
Procedure: as §2

[10] = system: Hep3B liver cancer cells; assay: MTT cell viability assay; details: read-out: IC50 values (μM), cell viability
Procedure: as §2

[11] = system: STAT3 phosphorylation induced by IL-6 in MDA-MB-453 breast cancer cells; assay: IL-6 induction of STAT3 phosphorylation; format: cell-based, human; details: MDA-MB-453, pretreatment 20 μM, IL-6 50 ng/mL 30 min
Procedure: After stimulation with IL-6 (50 ng/mL, Sigma) or IFN-γ (50 ng/mL, Sigma) for 30 min, the cells were harvested and analyzed by western blot.

[12] = system: Cleaved Caspase-3 in HCT-116 cells; assay: Western blot, HCT-116 cells; format: cell-based, human; details: HCT116, positive controls
Procedure: (§1) Membranes were analyzed with enhanced chemiluminescence Plus reagents (GE Healthcare) and scanned with a Storm PhosphorImager (Amersham Pharmacia Biotech Inc.).

[13] = system: P-STAT3(Y705) in HCT-116 cells; assay: Western blot, HCT-116 cells; format: cell-based, human; details: HCT116, positive controls
Procedure: as §1

[14] = system: P-STAT3(Y705) in U266 cells; assay: Western blot, U266 cells; format: cell-based, human; details: U266, positive controls
Procedure: as §1

[15] = system: Cleaved Caspase-3 in U266 cells; assay: Western blot, U266 cells; format: cell-based, human; details: U266, positive controls
Procedure: as §1

Compound	IC50 ([1]; U251 (G), MTT, 72 hours) [µM]	IC50 ([2]; SNU-449 (L), MTT, 72 hours) [µM]	IC50 ([3]; ARH77 (MM), MTT, 72 hours) [µM]	IC50 ([4]; SNU-398 (L), MTT, 72 hours) [µM]	IC50 ([5]; SNU-387 (L), MTT, 72 hours) [µM]	IC50 ([6]; U87 (G), MTT, 72 hours) [µM]	IC50 ([7]; HCT-116 (C), MTT, 72 hours) [µM]	IC50 ([8]; SW480 (C), MTT, 72 hours) [µM]	IC50 ([9]; U266 (MM), MTT, 72 hours) [µM]	IC50 ([10]; Hep3B (L), MTT, 72 hours) [µM]	IC50 ([1]; Homo sapiens, U-251, 72 h) [µM]	IC50 ([2]; Homo sapiens, SNU-449, 72 h) [µM]	IC50 ([3]; Homo sapiens, ARH-77, 72 h) [µM]	IC50 ([4]; Homo sapiens, SNU-398, 72 h) [µM]	IC50 ([5]; Homo sapiens, SNU-387, 72 h) [µM]	IC50 ([6]; Homo sapiens, 72 h) [µM]	IC50 ([7]; Homo sapiens, HCT-116, 72 h) [µM]	IC50 ([8]; Homo sapiens, SW480, 72 h) [µM]	IC50 ([9]; Homo sapiens, U-266, 72 h) [µM]	IC50 ([10]; Homo sapiens, Hep3B, 72 h) [µM]	other results
COc1cc(/C=C/C(=O)CC(=O)/C=C/c2ccc(O)c(OC)c2)ccc1O [Curcumin]	–	–	–	–	–	–	–	–	–	–	7.1	9.88	10.1	5.37	25.5	6.91	10.9	10.3	4.76	68.1	inhibition of the induction of STAT3 phosphorylation by IL-6 [11]: not
C[C@H](NC(=O)/C(C#N)=C/c1cccc(Br)n1)c1ccccc1 [WP1066]	–	–	–	–	–	–	–	–	–	–	5.04	3.85	3.43	4.88	5.17	5.78	1.51	1.98	1.38	10.2	apoptosis indicated by cleavage of caspase-3 (in words) [12]: induce apoptosis; effect on STAT3 phosphorylation (in words) [13]: inhibit STAT3 phosphorylation; effect on STAT3 phosphorylation (in words) [14]: inhibit STAT3 phosphorylation; apoptosis indicated by cleavage of caspase-3 (in words) [15]: induce apoptosis
N#C/C(=C/c1ccc(O)c(O)c1)C(=O)NCc1ccccc1 [AG490]	50.7	> 100	28.2	24.3	> 100	> 100	50.5	86.8	9.5	> 100	–	–	–	–	–	–	–	–	–	–	–

Further lines, with some results ahead:

IC50 ([1]; U251 (G), MTT, 72 hours) [µM]	IC50 ([2]; SNU-449 (L), MTT, 72 hours) [µM]	IC50 ([3]; ARH77 (MM), MTT, 72 hours) [µM]	IC50 ([4]; SNU-398 (L), MTT, 72 hours) [µM]	IC50 ([5]; SNU-387 (L), MTT, 72 hours) [µM]	IC50 ([6]; U87 (G), MTT, 72 hours) [µM]	IC50 ([7]; HCT-116 (C), MTT, 72 hours) [µM]	IC50 ([8]; SW480 (C), MTT, 72 hours) [µM]	IC50 ([9]; U266 (MM), MTT, 72 hours) [µM]	IC50 ([10]; Hep3B (L), MTT, 72 hours) [µM]	IC50 ([1]; Homo sapiens, U-251, 72 h) [µM]	IC50 ([2]; Homo sapiens, SNU-449, 72 h) [µM]	IC50 ([3]; Homo sapiens, ARH-77, 72 h) [µM]	IC50 ([4]; Homo sapiens, SNU-398, 72 h) [µM]	IC50 ([5]; Homo sapiens, SNU-387, 72 h) [µM]	IC50 ([6]; Homo sapiens, 72 h) [µM]	IC50 ([7]; Homo sapiens, HCT-116, 72 h) [µM]	IC50 ([8]; Homo sapiens, SW480, 72 h) [µM]	IC50 ([9]; Homo sapiens, U-266, 72 h) [µM]	IC50 ([10]; Homo sapiens, Hep3B, 72 h) [µM]	Compound	other results
97.3	> 100	35.2	16.2	> 100	55.1	> 100	> 100	8.87	> 100	–	–	–	–	–	–	–	–	–	–	Cc1ccc(S(=O)(=O)OCC(=O)Nc2ccc(C(=O)O)c(O)c2)cc1 [S3I-201]	–
0.84	2.5	2.57	3.23	4.3	0.73	0.96	0.43	0.99	17.8	–	–	–	–	–	–	–	–	–	–	O=[N+]([O-])c1ccc2c(c1)S(=O)(=O)C=C2 [Stattic]	apoptosis indicated by cleavage of caspase-3 (in words) [12]: induce apoptosis; effect on STAT3 phosphorylation (in words) [13]: inhibit STAT3 phosphorylation; effect on STAT3 phosphorylation (in words) [14]: inhibit STAT3 phosphorylation; apoptosis indicated by cleavage of caspase-3 (in words) [15]: induce apoptosis
